Our source for the Emax and EC50 values is US8404849B2, “Processes for producing modulators of cystic fibrosis transmembrane conductance regulator” (Vertex Pharmaceuticals, priority 2010, dated 2013).

Where only a bound is given, the exact number is not on record here.

The target in this test is T1, ΔF508-CFTR (Homo sapiens, UniProt P13569, DEL508-508).
T1 construct: expressed in transfected cells; host or cells: NIH3T3 mouse fibroblasts, stably expressing, cultured at 27 °C (temperature-corrected)
T1 sequence (P13569 with tags, fused parts or gaps DEL508-508): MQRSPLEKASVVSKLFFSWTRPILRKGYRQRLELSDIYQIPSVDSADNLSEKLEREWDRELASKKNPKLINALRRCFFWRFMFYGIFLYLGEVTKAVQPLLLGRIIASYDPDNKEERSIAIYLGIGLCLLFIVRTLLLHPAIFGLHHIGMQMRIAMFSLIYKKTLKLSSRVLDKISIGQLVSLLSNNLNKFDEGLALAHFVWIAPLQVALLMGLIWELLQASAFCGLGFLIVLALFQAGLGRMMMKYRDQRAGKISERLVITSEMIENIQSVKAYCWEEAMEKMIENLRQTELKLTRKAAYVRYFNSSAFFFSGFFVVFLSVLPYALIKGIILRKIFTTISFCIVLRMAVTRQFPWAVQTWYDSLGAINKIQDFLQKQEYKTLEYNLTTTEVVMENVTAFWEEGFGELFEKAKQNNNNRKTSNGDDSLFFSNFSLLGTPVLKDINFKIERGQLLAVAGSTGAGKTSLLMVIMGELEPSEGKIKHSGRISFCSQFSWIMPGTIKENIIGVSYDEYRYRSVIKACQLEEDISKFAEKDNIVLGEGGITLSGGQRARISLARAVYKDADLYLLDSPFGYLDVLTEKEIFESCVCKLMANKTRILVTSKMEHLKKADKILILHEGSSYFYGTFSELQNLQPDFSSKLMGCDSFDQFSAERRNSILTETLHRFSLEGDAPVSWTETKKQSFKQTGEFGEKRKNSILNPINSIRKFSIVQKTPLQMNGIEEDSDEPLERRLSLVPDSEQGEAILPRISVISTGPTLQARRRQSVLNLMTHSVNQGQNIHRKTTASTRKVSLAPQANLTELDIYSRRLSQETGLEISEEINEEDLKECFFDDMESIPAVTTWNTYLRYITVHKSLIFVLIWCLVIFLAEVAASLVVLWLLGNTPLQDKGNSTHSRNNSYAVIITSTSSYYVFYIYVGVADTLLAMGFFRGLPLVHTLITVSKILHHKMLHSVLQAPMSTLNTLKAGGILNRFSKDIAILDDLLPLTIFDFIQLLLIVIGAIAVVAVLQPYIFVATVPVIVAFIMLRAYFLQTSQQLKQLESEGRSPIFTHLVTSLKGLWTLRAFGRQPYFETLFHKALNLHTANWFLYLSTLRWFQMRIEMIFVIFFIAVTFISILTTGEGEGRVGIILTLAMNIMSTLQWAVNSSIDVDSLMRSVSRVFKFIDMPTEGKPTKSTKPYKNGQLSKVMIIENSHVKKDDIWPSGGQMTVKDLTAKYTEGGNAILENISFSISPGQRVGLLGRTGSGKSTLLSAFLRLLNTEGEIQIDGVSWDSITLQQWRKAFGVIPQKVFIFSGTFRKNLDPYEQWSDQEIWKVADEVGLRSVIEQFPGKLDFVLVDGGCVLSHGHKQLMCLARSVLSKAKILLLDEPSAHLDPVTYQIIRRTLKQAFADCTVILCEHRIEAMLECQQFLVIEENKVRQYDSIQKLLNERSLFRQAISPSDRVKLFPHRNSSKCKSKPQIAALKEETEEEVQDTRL
Put plainly: Membrane potential optical assay for identification of ΔF508-CFTR potentiators (FLIPR III, forskolin activation). It is filed as cell-based. The conditions noted are these: for Emax: NIH3T3, 100% efficacy is the maximum response obtained with 4-methyl-2-(5-phenyl-1H-pyrazol-3-yl)phenol, ΔF508 CFTR NIH 3T3 cells; for EC50: temperature-corrected ΔF508 CFTR NIH 3T3 cells. The source says:
The assay utilizes fluorescent voltage sensing dyes to measure changes in membrane potential using a fluorescent plate reader (e.g., FLIPR III, Molecular Devices, Inc.) as a readout for increase in functional ΔF508-CFTR in NIH 3T3 cells. The driving force for the response is the creation of a chloride ion gradient in conjunction with channel activation by a single liquid addition step after the cells have previously been treated with compounds and subsequently loaded with a voltage sensing dye.
To identify potentiators of ΔF508-CFTR, a double-addition HTS assay format was developed. This HTS assay utilizes fluorescent voltage sensing dyes to measure changes in membrane potential on the FLIPR III as a measurement for increase in gating (conductance) of ΔF508 CFTR in temperature-corrected ΔF508 CFTR NIH 3T3 cells. The driving force for the response is a Cl^− ion gradient in conjunction with channel activation with forskolin in a single liquid addition step using a fluorescent plate reader such as FLIPR III after the cells have previously been treated with potentiator compounds (or DMSO vehicle control) and subsequently loaded with a redistribution dye.
Solutions • Bath Solution #1: (in mM) NaCl 160, KCl 4.5, CaCl2 2, MgCl2 1, HEPES 10, pH 7.4 with NaOH. Chloride-Free Bath Solution: Chloride Salts in Bath Solution #1 are Substituted with Gluconate Salts.
NIH3T3 mouse fibroblasts stably expressing ΔF508-CFTR are used for optical measurements of membrane potential. The cells are maintained at 37° C. in 5% CO2 and 90% humidity in Dulbecco's modified Eagle's medium supplemented with 2 mM glutamine, 10% fetal bovine serum, 1×NEAA, β-ME, 1× pen/strep, and 25 mM HEPES in 175 cm^2 culture flasks. For all optical assays, the cells were seeded at ˜20,000/well in 384-well matrigel-coated plates and cultured for 2 hrs at 37° C. before culturing at 27° C. for 24 hrs. for the potentiator assay. For the correction assays, the cells are cultured at 27° C. or 37° C. with and without compounds for 16-24 hours.

As for `O=C(Nc1ccc(N2C3CCC2CC3)cc1C(F)(F)F)c1c[nH]c2cccc(C(F)(F)F)c2c1=O` [Formula II, N-(4-(7-azabicyclo[2.2.1]heptan-7-yl)-2-(trifluoromethyl)phenyl)-4-oxo-5-(trifluoromethyl)-1,4-dihydroquinoline-3-carboxamide], the Emax was in the range of 25 to 100% and the EC50 is less than 2000 nM.
On to `O=C(Nc1ccc(N2C3CCC2[C@H](O)C3)cc1C(F)(F)F)c1c[nH]c2cccc(C(F)(F)F)c2c1=O` (stereo partly drawn) [Compound 1a], for which the Emax was in the range of 25 to 100% and the EC50 was less than 2000 nM.
For `O=C(Nc1ccc(N2[C@@H]3CC[C@H]2[C@H](O)C3)cc1C(F)(F)F)c1c[nH]c2cccc(C(F)(F)F)c2c1=O` (relative stereo) [Compound 1b] the same measures were more than 100% and less than 2000 nM.
